Activity calls are given as the source filed them. The rule behind the calls is not given here.
What was measured:
Calf thymus DNA [1] = assay: Binding affinity to calf thymus duplex DNA assessed as induction of red shift in soret peak at 75 uM in pH 7 phosphate buffer by UV-vis spectrophotometric analysis; format: nucleic-acid assay; settings: Bos taurus
Calf thymus DNA [2] = assay: Binding affinity to calf thymus duplex DNA assessed as induction of ellipticity at 350 nanometer at 25 to 200 uM in pH 7 phosphate buffer by circular dichroism method; format: nucleic-acid assay; settings: Bos taurus
Calf thymus DNA [3] = assay: Binding affinity to calf thymus duplex DNA assessed as induction of hyperchromic shift at 257 nanometer at 75 uM in pH 7 phosphate buffer by UV-vis spectrophotometric analysis; format: nucleic-acid assay; settings: Bos taurus
Calf thymus DNA [4] = assay: Binding affinity to calf thymus duplex DNA assessed as induction of hyperchromicity at 25 to 200 uM in pH 7 phosphate buffer by circular dichroism method; format: nucleic-acid assay; settings: Bos taurus
Calf thymus DNA [5] = assay: Binding affinity to calf thymus duplex DNA assessed as induction of ellipticity at 2.5 to 63 uM in pH 7 phosphate buffer by circular dichroism method; format: nucleic-acid assay; settings: Bos taurus
Calf thymus DNA [6] = assay: Binding affinity to calf thymus duplex DNA assessed as change in melting temperature at 2.5 uM in pH 7 phosphate buffer by UV-vis spectrophotometric analysis; format: nucleic-acid assay; settings: Bos taurus
Calf thymus DNA [7] = assay: Binding affinity to calf thymus duplex DNA assessed as melting temperature at 0.5 mM by differential scanning calorimetry (reference value: 51 degC); format: nucleic-acid assay; settings: Bos taurus
Calf thymus DNA [8] = assay: Binding affinity to calf thymus duplex DNA assessed as induction of hyperchromic shift at 257 nanometer at 50 uM in pH 7 phosphate buffer by UV-vis spectrophotometric analysis; format: nucleic-acid assay; settings: Bos taurus
Calf thymus DNA [9] = assay: Binding affinity to calf thymus duplex DNA assessed as induction of red shift in soret peak at 50 uM in pH 8.9 phosphate buffer by UV-vis spectrophotometric analysis; format: nucleic-acid assay; settings: Bos taurus
Calf thymus DNA [10] = assay: Binding affinity to calf thymus duplex DNA assessed as melting temperature at 5 mM by differential scanning calorimetry (reference value: 51 degC); format: nucleic-acid assay; settings: Bos taurus
Bos taurus [11] = species on record: Bos taurus; assay: Binding affinity to calf thymus AT-rich duplex DNA assessed as induction of hyperchromicity at 25 to 200 uM in pH 7 phosphate buffer by circular dichroism method
Bos taurus [12] = species on record: Bos taurus; assay: Binding affinity to calf thymus GC-rich duplex DNA assessed as induction of hyperchromicity at 25 to 200 uM in pH 7 phosphate buffer by circular dichroism method
Calf thymus DNA [13] = assay: Binding affinity to calf thymus duplex DNA assessed as red shift in soret peak at 50 uM in pH 7 phosphate buffer by UV-vis spectrophotometric analysis; format: nucleic-acid assay; settings: Bos taurus
Calf thymus DNA [14] = assay: Binding affinity to calf thymus duplex DNA assessed as melting temperature at 1 mM by differential scanning calorimetry (reference value: 51 degC); format: nucleic-acid assay; settings: Bos taurus
Calf thymus DNA [15] = assay: Binding affinity to calf thymus duplex DNA assessed as induction of ellipticity at 349 nanometer at 25 to 200 uM in pH 7 phosphate buffer by circular dichroism method; format: nucleic-acid assay; settings: Bos taurus
Bos taurus [16] = species on record: Bos taurus; assay: Binding affinity to calf thymus GC-rich duplex DNA assessed as induction of ellipticity at 25 to 200 uM in pH 7 phosphate buffer by circular dichroism method
Calf thymus DNA [17] = assay: Binding affinity to calf thymus duplex DNA assessed as induction of red shift in soret peak at 50 uM in pH 5.4 phosphate buffer by UV-vis spectrophotometric analysis; format: nucleic-acid assay; settings: Bos taurus
Bos taurus [18] = species on record: Bos taurus; assay: Binding affinity to calf thymus AT-rich duplex DNA assessed as induction of ellipticity at 25 to 200 uM in pH 7 phosphate buffer by circular dichroism method
Calf thymus DNA [19] = assay: Binding affinity to calf thymus duplex DNA assessed as induction of hyperchromicity at 280 nanometer at 25 to 200 uM in pH 7 phosphate buffer by circular dichroism method; format: nucleic-acid assay; settings: Bos taurus
Calf thymus DNA [20] = assay: Binding affinity to calf thymus duplex DNA assessed as change in melting temperature at 50 uM in pH 7 phosphate buffer by UV-vis spectrophotometric analysis; format: nucleic-acid assay; settings: Bos taurus
Calf thymus DNA [21] = assay: Binding affinity to calf thymus duplex DNA assessed as induction of ellipticity at 25 to 200 uM in pH 8.9 phosphate buffer by circular dichroism method; format: nucleic-acid assay; settings: Bos taurus
Calf thymus DNA [22] = assay: Binding affinity to calf thymus duplex DNA assessed as induction of ellipticity at 25 to 200 uM in pH 7 phosphate buffer in presence of 0.1 M NaCl by circular dichroism method; format: nucleic-acid assay; settings: Bos taurus
Calf thymus DNA [23] = assay: Binding affinity to calf thymus duplex DNA assessed as induction of red shift at 280 nanometer at 25 to 200 uM in pH 7 phosphate buffer by circular dichroism method; format: nucleic-acid assay; settings: Bos taurus
Calf thymus DNA [24] = assay: Binding affinity to calf thymus duplex DNA assessed as induction of ellipticity at 25 to 200 uM in pH 5.4 phosphate buffer by circular dichroism method; format: nucleic-acid assay; settings: Bos taurus
Calf thymus DNA [25] = assay: Binding affinity to calf thymus duplex DNA assessed as increase in melting temperature by differential scanning calorimetry; format: nucleic-acid assay; settings: Bos taurus
Calf thymus DNA [26] = assay: Binding affinity to calf thymus duplex DNA assessed as induction of hyperchromic shift at 257 nanometer at 50 uM in pH 8.9 phosphate buffer by UV-vis spectrophotometric analysis; format: nucleic-acid assay; settings: Bos taurus
Calf thymus DNA [27] = assay: Binding affinity to calf thymus duplex DNA assessed as induction of hyperchromic shift at 257 nanometer at 50 uM in pH 5.4 phosphate buffer by UV-vis spectrophotometric analysis; format: nucleic-acid assay; settings: Bos taurus

c1ccc2c(c1)[nH]c1cnccc12
Activity (Calf thymus DNA [1]): Active | Activity (Calf thymus DNA [2]): inactive | Activity (Calf thymus DNA [3]): Active

C[n+]1ccc2c([nH]c3ccccc32)c1-c1c[nH]c2ccccc12
Activity (Calf thymus DNA [4]): inactive | Activity (Calf thymus DNA [2]): inactive

CC[n+]1c(-c2ccccc2)c2cc(N)ccc2c2ccc(N)cc21
Activity (Calf thymus DNA [5]): Active | ΔTm (Calf thymus DNA [6]): 8.9 °C | Tm (Calf thymus DNA [7]): 75 °C

c1ccc2c(-c3nccc4c3[nH]c3ccccc34)c[nH]c2c1
Activity (Calf thymus DNA [8]): Active | Activity (Calf thymus DNA [9]): Active | Tm (Calf thymus DNA [10]): 67 °C | Activity (Bos taurus [11]): inactive | Activity (Bos taurus [12]): inactive | Activity (Calf thymus DNA [13]): 20 nm | Tm (Calf thymus DNA [14]): 56 to 67 °C | Activity (Calf thymus DNA [15]): Active | Activity (Bos taurus [16]): inactive | Activity (Calf thymus DNA [17]): Active | Activity (Bos taurus [18]): inactive | Activity (Calf thymus DNA [19]): Active | ΔTm (Calf thymus DNA [20]): 2.3 °C | Activity (Calf thymus DNA [21]): inactive | Activity (Calf thymus DNA [22]): Active | Activity (Calf thymus DNA [23]): Active | Activity (Calf thymus DNA [24]): Active | Activity (Calf thymus DNA [25]): Dose-dependent effect | Activity (Calf thymus DNA [26]): Active | Activity (Calf thymus DNA [27]): Active

Cc1nccc2c1[nH]c1ccccc12
Activity (Calf thymus DNA [8]): Active | Activity (Calf thymus DNA [13]): Active | Tm (Calf thymus DNA [7]): 65 °C | ΔTm (Calf thymus DNA [20]): 4 °C | Activity (Calf thymus DNA [2]): inactive

— ChEMBL document CHEMBL4431382, “DNA-binding studies of the natural β-carboline eudistomin U” (Bioorg Med Chem Lett, 2016)
